One series has as its target α2,6 sialyltransferase (Photobacterium damselae, UniProt O66375). Kind of series: Sialyltransferase assay (flow cytometry), exogenous ST with PMNs as sialyl residue acceptors. It counts as cell-based, bacterial. To be noted: 0.3 mM CMP. An excerpt: For the study of PMN ST activity, a previously described ST assay was adapted in which CMP-5-NANA served as the labeled sialyl residue donor and neuraminidase-treated RBCs as the sialyl residue acceptor (7). Based on preliminary studies, a standard reaction mixture contained a sialyl residue acceptor, either RBCs or polymorphonuclear leukocytes, CMP-5-NANA and a ST source. Purified α2,6-ST at a final concentration of 0.5 nU/ml, or polymorphonuclear leukocytes as an endogenous source of ST activity were used in a final volume of 100 μl cell incubation buffer (CIB) containing PBS plus 5 mg/ml BSA, pH 6.8. […] When used as an endogenous source of ST activity, human polymorphonuclear leukocytes were adjusted to a stock concentration of 1×10^8 PMN/ml, lysed by freeze/thawing, centrifuged, and the protein concentration of the supernatant determined (Bio-Rad Laboratories, Hercules, Calif.). […]
After gentle mixing, all tubes were incubated for 2 h at 37° C. in a humidified atmosphere containing 5% CO2. The cells were washed, pelleted and resuspended in CIB and analyzed fluorocytometrically on a FACScan II (Becton-Dickinson, Mountain View, Calif.). Based on forward and right angle light scatter properties, an electronic gate was placed around the RBCs or polymorphonuclear leukocytes which were excited at […] and emission measured at 530 nm. At least 10,000 events were recorded per condition. […]
(In flow cytometry, cells or beads pass a laser one at a time.)

For series [1], the system named is endogenous sialyltransferase activity of human polymorphonuclear leukocytes. Kind of series: Sialyltransferase assay (flow cytometry), intact PMNs as endogenous ST source. The series is classed as cell-based. From the text:
For the study of PMN ST activity, a previously described ST assay was adapted in which CMP-5-NANA served as the labeled sialyl residue donor and neuraminidase-treated RBCs as the sialyl residue acceptor (7). Based on preliminary studies, a standard reaction mixture contained a sialyl residue acceptor, either RBCs or polymorphonuclear leukocytes, CMP-5-NANA and a ST source. Purified α2,6-ST at a final concentration of 0.5 nU/ml, or polymorphonuclear leukocytes as an endogenous source of ST activity were used in a final volume of 100 μl cell incubation buffer (CIB) containing PBS plus 5 mg/ml BSA, pH 6.8. Sialyl residue acceptor SRBCs and polymorphonuclear leukocytes were desialylated with 25 mU/ml NANase/1-2×10^8/cells in 1 ml of CIB for 1 h at 37° C., washed once in CIB and used at 4×10^6 cells or at 8×10^6 cells respectively in a volume of 40 μl. When used as an endogenous source of ST activity, human polymorphonuclear leukocytes were adjusted to a stock concentration of 1×10^8 PMN/ml, lysed by freeze/thawing, centrifuged, and the protein concentration of the supernatant determined (Bio-Rad Laboratories, Hercules, Calif.). Intact human polymorphonuclear leukocytes at 8×10^6/0.1 ml assay volume were also used both as a source of ST activity as well as an acceptor of sialyl residues.
After gentle mixing, all tubes were incubated for 2 h at 37° C. in a humidified atmosphere containing 5% CO2. The cells were washed, pelleted and resuspended in CIB and analyzed fluorocytometrically on a FACScan II (Becton-Dickinson, Mountain View, Calif.). Based on forward and right angle light scatter properties, an electronic gate was placed around the RBCs or polymorphonuclear leukocytes which were excited at […] and emission measured at 530 nm. At least 10,000 events were recorded per condition. Data was analyzed with a CellQuest analysis program.
For each experiment, controls included omission of each of the components of the assay mixture, i.e., ST source, CMP-5 NANA or sialyl residue acceptor) as well as boiled, exogenous α2,6 ST. When indicated, 2-DN (0.04 mM, final concentration), an inhibitor of sialidase activity (8) was introduced to prevent the possible removal of the transferred sialyl residues. ST activity was measured after subtraction of background fluorescence, i.e., complete assay mixture minus either the exogenous ST or, for endogenous ST, in the presence and absence of the ST inhibitor, CMP (0.3 mM final concentration) and was expressed as % of maximal activity. For experiments in which it was estimated the endogenous ST activity, a standard curve was constructed using serial 2-fold dilutions of purified α2-6 ST enzyme from which tissue ST activity was interpolated, and expressed the ST activity as nU per μg protein.

In series [2] the test system is polymorphonuclear leukocytes. Kind of series: Preliminary tests of CMP toxicity to PMNs. It counts as cell-based, human. To be noted: 0.3 mM CMP.
For series [3], the system named is human polymorphonuclear leukocytes migrating across human pulmonary artery endothelial cells (HPAEC). Kind of series: Transendothelial migration of PMNs across HPAEC monolayers in response to IL-8. It counts as cell-based. To be noted: 0.3 mM CMP; TNF-treated HPAEC monolayers, IL-8 150 ng/ml, 2 h; p<0.03. The protocol: FIG. 4 depicts inhibition of transendothelial cell migration by an ST inhibitor, cytidine monophosphate (CMP). Calcein AM-labeled human polymorphonuclear leukocytes were added to human pulmonary artery endothelial cells (HPAEC) pre-treated for 4 hrs with rTNF (50 U/ml). TEM was measured in response to IL-8 (150 ng/ml) over 2 hr as previously described (6) in the absence and presence of 0.3 mM CMP. 4 chambers/variable were studied. This figure is representative of 3 independent experiments.
The ability of human polymorphonuclear leukocytes to migrate across human pulmonary artery endothelial cell (HPAEC) monolayers in response to a chemotactic stimulus (IL-8) was measured as previously described (6). Only EC monolayers retaining […] of a ^14C-bovine serum albumen tracer were studied (i.e. no loss of barrier function). After treatment of HPAECs for 4 h with 25 U/ml TNFr, calcein AM (Molecular Probes, Eugene, Oreg.)-labeled human polymorphonuclear leukocytes (5×10^5 cells/well) were introduced into the upper compartments of the assay chambers, incubated for 2 h at 37° C., after which time each lower compartment was sampled and fluorometrically assayed. A standard curve was established for each experiment from which polymorphonuclear leukocyte numbers could be interpolated from fluorescence units and PMN TEM was expressed as % migration.

For series [4], the system named is polymorphonuclear leukocytes adhering to human microvascular endothelial cells (HMVEC). Kind of series: Adherence of resting PMNs to LPS-activated endothelial cells. It counts as cell-based. Particulars: CMP 2.5 mM for 5 minutes prior to stimulation; LPS 100 ng/ml for 4 hrs; FIG. 5. The protocol:
In contrast, when the human microvascular endothelial cells, HMVECs, are treated with lipopolysaccharide, LPS, (100 ng/ml for 4 hrs) to activate them, resting polymorphonuclear leukocytes adhere better to the HMVECs. […] When polymorphonuclear leukocytes are activated with the tetrapeptide FMLP (1×10^−7 M/cyt b for 5 min.) they adhere better than do resting polymorphonuclear leukocytes (FIG. 5). At this later stage of PMN-EC interaction, sialyltransferase doesn't play a role. It is contemplated that CMP appears to work by inhibiting the initial binding of non-activated polymorphonuclear leukocytes to the ECs and also works at the late stage where polymorphonuclear leukocytes that have migrated through the EC monolayer are unable to move further to the inflammatory nidus.

Series [5] concerns polymorphonuclear leukocytes in the peritoneal fluid. Kind of series: In vivo IL-8 recruitment of PMNs to the peritoneal fluid. Particulars: mice; CMP intravenously 30 min before and 1 hr after IL-8 (150 ng/ml) intraperitoneally; counted at 2 hrs. Here is the method: Mice are pre-treated intravenously with different doses of CMP 30 minutes before giving IL-8 (150 ng/ml) intraperitoneally to recruit polymorphonuclear leukocytes. This is followed with another dose of CMP one hr after the IL-8. Polymorphonuclear leukocytes in the peritoneal fluid of these mice are counted at 2 hrs after the IL-8, i.e., one hr after the second dose of CMP. The total polymorphonuclear leukocytes in the perioneal fluid of mice treated with CMP is compared with those given an equal volume of saline. It is contemplated that those receiving the CMP will have a lower number of polymorphonuclear leukocytes in the perioneal fluid.

SMILES strings stand for the structures. “Also recorded” adds a separate entry of the source.

α2,6 sialyltransferase, sequence (O66375 entry or part of it): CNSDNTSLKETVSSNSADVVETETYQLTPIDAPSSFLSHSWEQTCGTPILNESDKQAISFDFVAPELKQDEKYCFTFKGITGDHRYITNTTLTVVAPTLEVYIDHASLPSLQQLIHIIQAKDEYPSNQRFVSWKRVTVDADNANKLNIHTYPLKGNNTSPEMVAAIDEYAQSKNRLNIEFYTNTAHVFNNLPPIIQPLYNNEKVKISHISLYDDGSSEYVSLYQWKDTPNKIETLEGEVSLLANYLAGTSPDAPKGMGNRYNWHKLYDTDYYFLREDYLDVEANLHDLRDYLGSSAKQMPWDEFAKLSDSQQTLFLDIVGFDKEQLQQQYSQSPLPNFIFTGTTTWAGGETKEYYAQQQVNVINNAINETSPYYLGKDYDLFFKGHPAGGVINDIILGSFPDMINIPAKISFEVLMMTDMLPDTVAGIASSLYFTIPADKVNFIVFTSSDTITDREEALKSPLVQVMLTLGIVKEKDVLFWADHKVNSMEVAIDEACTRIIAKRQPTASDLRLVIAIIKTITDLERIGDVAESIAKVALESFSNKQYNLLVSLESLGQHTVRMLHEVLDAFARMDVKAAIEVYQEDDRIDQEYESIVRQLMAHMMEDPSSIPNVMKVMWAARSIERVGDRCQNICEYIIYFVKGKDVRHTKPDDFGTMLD

`Nc1ccn([C@@H]2O[C@H](COP(=O)(O)O)[C@@H](O)[C@H]2O)c(=O)n1` [CMP, cytidine 5′-monophosphate]: the “MFI (mean fluorescence intensity) with CMP” value amounted to 165 at α2,6 sialyltransferase (FIG. 2A: neuraminidase-pretreated PMNs + exogenous sialyltransferase, MFI 406 without CMP); 167 on α2,6 sialyltransferase (FIG. 2B: PMNs unexposed to neuraminidase + exogenous sialyltransferase, MFI 310 without CMP); 141 in series [1] (FIG. 2C: neuraminidase-pretreated PMNs + intact untreated PMNs as endogenous ST source, 0.3 mM CMP, MFI 295 without CMP); 131 in series [1] (FIG. 2D: intact untreated PMNs added to PMNs not exposed to neuraminidase, 0.3 mM CMP, MFI 266 without CMP). For the same compound, in series [1] (0.3 mM CMP, preliminary tests), the “inhibition of ST activity in vitro” value is given as “fully inhibited”. Further, the “mean fluorescence intensity (MFI) after CMP treatment” value in series [1] (FIG. 3A: PMNs (8×10^6), 10 μM CMP-NANA, 0.3 mM CMP, MFI 364 without CMP) is 222. Besides, the “toxicity to the polymorphonuclear leukocytes” value in series [2] was “not toxic”. Besides, the “inhibition of TEM (transendothelial migration)” value in series [3] is greater than 40%. In addition, the “adherence of resting PMNs to LPS-treated HMVECs” value in series [4] was “inhibits the initial binding; also recorded: decreased adherence”. In addition, in series [5], the “number of polymorphonuclear leukocytes in the peritoneal fluid vs saline” value was “lower number”.
On to `CC(=O)N[C@H]1[C@H]([C@H](O)[C@H](O)CO)OC(C(=O)O)=C[C@@H]1O` [2-DN, 2,3 deoxy-N-acetyl neuraminic acid], for which the “MFI (ST activity) in presence of sialidase inhibitor 2-DN” value in series [1] (FIG. 3B: intact untreated PMNs, 2-DN 0.04 mM final concentration, MFI 364 without 2-DN) was found to be 317.

Values taken from patent US20060074047A1, “Method of treating inflammation with inhibitors of sialyl transferases” (priority 2004, published 2006).
